From US7034035B2, “Fungicidal mono-, bi-, and tri-cycloheteroalkyl amides and their compositions, methods of use and preparation” (priority 1999, dated 2006) come the findings set out here.

The subject of series [1] is Leptosphaeria nodorum—LEPTNO. Briefly: Glume Blotch of Wheat, in vivo whole plant, 24 Hour Protectant. Conditions: inoculated after 24 hours; for pest or weed control at 100 ppm: Leptosphaeria, 24 h, read-out: LEPTNO in vivo 1 Day Protectant.
Series [2] relates to Puccinia recondita—PUCCRT. Briefly: Brown Rust of Wheat, in vivo whole plant, 24 Hour Protectant. Particulars: inoculated after 24 hours; for pest or weed control at 100 ppm: Puccinia, read-out: PUCCRT in vivo 1 Day Protectant.
For series [3], the system named is Phytophthora infestans—PHYTIN. Kind of series: whole plant or invertebrate. It counts as in vivo. Particulars: for pest or weed control at 100 ppm: Phytophthora, in Solanum lycopersicum, 24 h, read-out: PHYTIN in vivo 1 Day Protectant.
Another series concerns Septoria tritici—SEPTTR. Kind of series: Leaf Blotch of Wheat, in vivo whole plant, 24 Hour Protectant. Conditions: inoculated after 24 hours; for pest or weed control at 100 ppm: Zymoseptoria tritici, read-out: SEPTTR in vivo 1 Day Protectant.
Another series deals with Erysiphe graminis—ERYSGT. Kind of series: Powdery Mildew of Wheat, in vivo whole plant, 24 Hour Protectant. Particulars: for pest or weed control at 100 ppm: Erysiphe, in Triticum aestivum, 24 h, read-out: ERYSGT in vivo 1 Day Protectant.
For series [4], the system named is Magnaporthe grisea (Pyricularia oryzae—PYRIOR). Kind of series: microbe, parasite or virus in culture. The format is cell-based.
Another series concerns Ustilago maydis (USTIMA). Kind of series: microbe, parasite or virus in culture. It counts as cell-based.
Series [5] concerns Rhizoctonia solani (RHIZSO). Briefly: microbe, parasite or virus in culture. The format is cell-based.
In series [6] the test system is Stagonospora nodorum (Leptosphaeria nodorum—LEPTNO). Kind of series: Inhibition of in vitro fungal growth, LEPTNO. The format is cell-based. More on the design: inhibition of growth: dose or concentration left out as unconfirmed.
In series [7] the test system is Phytophthora infestans (PHYTIN). Briefly: microbe, parasite or virus in culture. The format is cell-based.
The test system of series [8] is Mycosphaerella graminicola (Septoria tritici—SEPTTR). Briefly: Inhibition of in vitro fungal growth, SEPTTR. The format is cell-based. On the set-up: inhibition of growth: dose or concentration left out as unconfirmed.
[9] abbreviates: wheat plants sprayed at 100 ppm, control vs untreated plants.
[10] abbreviates: wheat (cultivar Yuma), sprayed at 100 ppm, control of fungal infection vs untreated plants.

Read-outs that look alike come from different tables or passages of the source.

In turn, `COc1ccnc(C(=O)Nc2cccc(CC3CC(C)(C)OC(C)(C)C3)c2)c1O` [Compound 460] showed a melting point of 149 to 153 °C. Besides, the pest or weed control at 100 ppm in [1] (setting [9]) was 25 to 74%. In addition, in series [2] (setting [9]), the pest or weed control at 100 ppm was in the range of 25 to 74%. Moreover, the pest or weed control at 100 ppm in [3] is under 25%. The pest or weed control at 100 ppm in the series with Septoria tritici—SEPTTR (setting [9]) was in the range of 25 to 74%. Further, the pest or weed control at 100 ppm in the series with Erysiphe graminis—ERYSGT fell in the range of 25 to 74%.

In turn, `CC1(C)CC(NC(=O)c2ccnnc2O)CC(C)(C)C1` [Compound 539] registered a melting point of 263 to 265 °C. In series [1] (setting [9]), the pest or weed control at 100 ppm lay within 25 to 74%. Further, the pest or weed control at 100 ppm in [2] (setting [9]) was 25 to 74%. The pest or weed control at 100 ppm in series [3] is under 25%. In the series on Septoria tritici—SEPTTR (setting [9]), the pest or weed control at 100 ppm lay in the range of 25 to 74%. Besides, the pest or weed control at 100 ppm with Erysiphe graminis—ERYSGT was under 25%.

`Cc1ccnc(C(=O)NC2C(=O)OC(=O)[C@H](Cc3ccccc3)[C@@H](OC(=O)C(C)C)[C@H](C)OC2=O)c1O` (some centres unmarked) [Compound 237] returned a melting point of 122 to 134 °C. Moreover, the pest or weed control at 100 ppm in series [1] (setting [10]) is 25 to 74%. Also, the pest or weed control at 100 ppm in series [2] (setting [10]) lay in the range of 75 to 100%. For the same compound, the inhibition of growth at 25 µg/mL in series [4] (Pyricularia oryzae, read-out: PYRIOR in vitro Growth Inhibition) was under 80%. For the same compound, the inhibition of growth at 25 µg/mL with Ustilago maydis (USTIMA) (Mycosarcoma maydis, read-out: USTIMA in vitro Growth Inhibition) is under 80%. Further, the pest or weed control at 100 ppm in [3] was under 25%. In series [5] (Rhizoctonia solani, read-out: RHIZSO in vitro Growth Inhibition), the inhibition of growth at 25 µg/mL was under 80%. The inhibition of growth in series [6] (Leptosphaeria, in vitro fungal growth) is under 80%. Moreover, the pest or weed control at 100 ppm with Septoria tritici—SEPTTR (setting [10]) fell in the range of 25 to 74%. Besides, the inhibition of growth at 25 µg/mL in series [7] (Phytophthora infestans, read-out: PHYTIN in vitro Growth Inhibition) is under 80%. The pest or weed control at 100 ppm with Erysiphe graminis—ERYSGT is under 25%. The compound further yielded an inhibition of growth in series [8] (Zymoseptoria tritici, in vitro fungal growth) of under 80%.

`CC(C)C(=O)O[C@H]1[C@H](C)OC(=O)[C@@H](NC(=O)c2cccnc2O)COC(=O)[C@@H]1Cc1ccccc1` [Compound 523]: the melting point is 188 to 190 °C (dec.). Besides, the pest or weed control at 100 ppm in [1] (setting [9]) was 75 to 100%. Moreover, in [2] (setting [9]), the pest or weed control at 100 ppm lay within 25 to 74%. In series [3], the pest or weed control at 100 ppm is 25 to 74%. The pest or weed control at 100 ppm with Septoria tritici—SEPTTR (setting [9]) lay within 25 to 74%. Moreover, the pest or weed control at 100 ppm with Erysiphe graminis—ERYSGT fell in the range of 25 to 74%.

On to “N-(3-Hydroxy-4-Methoxy-2-Pyridylcarbonyl)-2-Amino-2-Deoxy-alpha-D-Glucopyranose [Compound 334]”, for which, in series [1] (setting [10]), the “LEPTNO in vivo 1 Day Protectant” value is on record as “+ (25-74% control of fungal infection)”. Also, the “PUCCRT in vivo 1 Day Protectant” value in [2] (setting [10]) is reported as “− (<25% control of fungal infection)”. In addition, the “PYRIOR in vitro Growth Inhibition” value in series [4] (in vitro fungal growth) is listed as “− (less than 80% growth inhibition)”. Also, the “USTIMA in vitro Growth Inhibition” value in the series on Ustilago maydis (USTIMA) was “− (key: +: at least 80% growth inhibition; −: less than 80% growth inhibition)”. The “PHYTIN in vivo 1 Day Protectant” value in series [3] (tomato (cultivar Rutgers), sprayed at 100 ppm, inoculated after 24 hours, control of fungal infection vs untreated plants) is listed as “− (<25% control of fungal infection)”. In addition, in [5], the “RHIZSO in vitro Growth Inhibition” value is given as “− (key: +: at least 80% growth inhibition; −: less than 80% growth inhibition)”. For the same compound, the “LEPTNO in vitro Growth Inhibition” value in series [6] is reported as “− (key: +: at least 80% growth inhibition; −: less than 80% growth inhibition)”. The “SEPTTR in vivo 1 Day Protectant” value in the series on Septoria tritici—SEPTTR (setting [10]) is reported as “− (<25% control of fungal infection)”. Besides, the “PHYTIN in vitro Growth Inhibition” value in series [7] (in vitro fungal growth) was “− (less than 80% growth inhibition)”. In addition, in the series with Erysiphe graminis—ERYSGT (wheat (cultivar Monon), sprayed at 100 ppm, inoculated after 24 hours, control of fungal infection vs untreated plants), the “ERYSGT in vivo 1 Day Protectant” value is recorded as “− (<25% control of fungal infection)”. For the same compound, in series [8], the “SEPTTR in vitro Growth Inhibition” value is reported as “− (key: +: at least 80% growth inhibition; −: less than 80% growth inhibition)”.

As to `COc1ccnc(C(=O)NC2CC(C)(C)C(OC(=O)c3cccc(Cl)n3)C(C)(C)C2)c1O` (centres unmarked) [Compound 269], the melting point was in the range of 55 to 56 °C. Further, in the series with Ustilago maydis (USTIMA), the “USTIMA in vitro Growth Inhibition” value is “− (key: +: at least 80% growth inhibition; −: less than 80% growth inhibition)”. In addition, the “RHIZSO in vitro Growth Inhibition” value in series [5] is given as “− (key: +: at least 80% growth inhibition; −: less than 80% growth inhibition)”.

For orientation: melting point means the temperature of the solid-liquid transition.
